Data from US20040220148A1, “5-Membered ring heterocycles as inhibitors of leucocyte adhesion and as VLA-4 antagonists” (Aventis Pharma Deutschland GmbH, priority 1996, published 2004).

Target: T1, VLA-4 integrins on human U937 cells (interaction between VCAM-1 and VLA-4) (Homo sapiens, UniProt P05556+P13612)
T1 construct: the VLA-4 integrins, are offered in their natural form as surface molecules on human U937 cells; host or cells: U937 cells (VLA-4, endogenous); the partner hVCAM-1(1-3)-IgG came from the supernatant of transfected COS cells (ATCC CRL1651)
Test: U937/VCAM-1 cell adhesion test (adhesion of U937 cells to hVCAM-1(1-3)-IgG)
Format: cell-based
Conditions: concentration leading to 50% inhibition of adhesion
Source text: As a test method for the activity of the compounds of the formula I on the interaction between VCAM-1 and VLA-4, an assay which is specific for this interaction is used. The cellular binding components, i.e. the VLA-4 integrins, are offered in their natural form as surface molecules on human U937 cells (ATCC CRL 1593) which belong to the group of leucocytes. As specific binding components, recombinant soluble fusion proteins prepared by genetic engineering and consisting of the extracytoplasmic domains of human VCAM-1 and the constant region of a human immunoglobulin of the subclass IgG1 are used.
Assay for the Measurement of the Adhesion of U937 Cells (ATCC CRL 1593) to hVCAM-1 (1-3)-IgG
1. Preparation of Human VCAM-1(1-3)-IgG and Human CD4-IgG
A genetic construct for the expression of the extracellular domains of human VCAM-1 was employed, associated with the genetic sequence of the heavy chain of human immunoglobulin IgG1 (hinge, CH2 and CH3 regions), from Dr. Brian Seed, Massachusetts General Hospital, Boston, USA. The soluble fusion protein hVCAM-1(1-3)-IgG contained the three amino-terminal extracellular immunoglobulin-like domains of human VCAM-1 (Damle and Aruffo, Proc. Natl. Acad. Sci. USA 1991, 88, 6403). CD4-IgG (Zettlmeissl et al, DNA and Cell Biology 1990, 9, 347) served as a fusion protein for negative controls. The recombinant proteins were expressed as soluble proteins after DEAE/dextran-mediated DNA-transfection in COS cells (ATCC CRL1651) according to standard procedures (Ausubel et al., Current protocols in molecular biology, John Wiley & Sons, Inc., 1994).
2. Assay for Measurement of the Adhesion of U937 Cells to hVCAM-1(1-3)-IgG
2.1 96-well microtiter test plates (Nunc Maxisorb) were incubated at room temperature for 1 hour with 100 μl/well of a goat-anti-human IgG antibody solution (10 μg/ml in 50 mM tris, pH 9.5). After removing the antibody solution, washing was carried out once with PBS.
2.2 150 μl/well of a blocking buffer (1% BSA in PBS) were incubated on the plates at room temperature for 0.5 hours. After removing the blocking buffer, washing was carried out once with PBS.
2.3 100 μl per well of a cell culture supernatant of transfected COS cells were incubated on the plates at room temperature for 1.5 hours. The COS cells were transfected with a plasmid which codes for the three N-terminal immunoglobulin-like domains of VCAM-1, coupled to the Fc part of human IgG1 (hVCAM-1(1-3)-IgG). The content of hVCAM-1 (1-3)-IgG was about […]. After removing the culture supernatant, washing was carried out once with PBS.
2.4 The plates were incubated at room temperature for 20 minutes with […] of Fc receptor blocking buffer (1 mg/ml of γ-globulin, 100 mM NaCl, 100 μM MgCl2, 100 μM MnCl2, 100 μM CaCl2, 1 mg/ml BSA in 50 mM HEPES, pH 7.5). After removing the Fc receptor blocking buffer, washing was carried out once with PBS.
2.5 20 μl of binding buffer (100 mM NaCl, 100 μM MgCl2, 100 μM MgCl2, 100 μM CaCl2, 1 mg/ml BSA in 50 mM HEPES, pH 7.5), were initially introduced, the substances to be tested were added in 10 μl of binding buffer and the mixture was incubated for 20 minutes. As controls, antibodies against VCAM-1 (BBT, No. BBA6) and against VLA-4
(Immunotech, No. 0764) were used.
2.6 U937 cells were incubated in Fc receptor blocking buffer for 20 minutes and then pipetted in at a concentration of 1×10^6/ml and in an amount of 100 μl per well ([…]).
2.7 The plates were slowly immersed at an angle of 45° in stop buffer (100 mM NaCl, 100 μM MgCl2, 100 μM MnCl2, 100 μM CaCl2 in 25 mM Tris, pH 7.5) and shaken off. The process was repeated.
2.8 50 μl/well of a dye solution (16.7 μg/ml of Hoechst dye 33258, 4% formaldehyde, 0.5% Triton X-100 in PBS) were then incubated on the plates for 15 minutes.
2.9 The plates were shaken off and slowly immersed at an angle of 45° in stop buffer (100 mM NaCl, 100 μM MgCl2, 100 μM MnCl2, 100 μM CaCl2 in 25 mM Tris, pH 7.5). The process was repeated. […]

T1 sequence (P13612 34-1032): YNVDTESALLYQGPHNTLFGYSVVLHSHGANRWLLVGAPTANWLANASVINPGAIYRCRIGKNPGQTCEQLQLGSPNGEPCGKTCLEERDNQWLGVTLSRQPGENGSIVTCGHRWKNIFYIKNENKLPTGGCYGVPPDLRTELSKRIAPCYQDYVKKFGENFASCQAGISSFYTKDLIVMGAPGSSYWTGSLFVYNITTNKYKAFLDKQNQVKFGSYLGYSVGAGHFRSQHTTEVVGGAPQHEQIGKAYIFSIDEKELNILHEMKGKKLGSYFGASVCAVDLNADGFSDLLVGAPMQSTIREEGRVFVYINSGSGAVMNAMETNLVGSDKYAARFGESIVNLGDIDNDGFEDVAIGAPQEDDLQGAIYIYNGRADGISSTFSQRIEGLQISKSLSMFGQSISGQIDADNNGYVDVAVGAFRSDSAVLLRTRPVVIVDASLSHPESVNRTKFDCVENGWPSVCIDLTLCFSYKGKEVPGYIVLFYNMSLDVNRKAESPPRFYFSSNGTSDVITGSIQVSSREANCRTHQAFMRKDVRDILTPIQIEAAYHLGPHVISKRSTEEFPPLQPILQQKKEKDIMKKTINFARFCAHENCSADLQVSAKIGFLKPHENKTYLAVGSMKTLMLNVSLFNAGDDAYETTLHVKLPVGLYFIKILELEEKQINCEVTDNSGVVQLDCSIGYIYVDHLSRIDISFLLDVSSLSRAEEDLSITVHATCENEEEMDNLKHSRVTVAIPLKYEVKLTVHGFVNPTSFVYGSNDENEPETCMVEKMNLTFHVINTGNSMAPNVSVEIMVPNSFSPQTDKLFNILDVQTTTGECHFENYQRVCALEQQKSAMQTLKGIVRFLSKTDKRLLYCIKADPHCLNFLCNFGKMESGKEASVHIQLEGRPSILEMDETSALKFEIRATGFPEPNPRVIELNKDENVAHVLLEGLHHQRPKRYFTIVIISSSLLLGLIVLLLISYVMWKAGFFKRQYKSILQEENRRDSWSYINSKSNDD
T1 sequence (P05556 21-798): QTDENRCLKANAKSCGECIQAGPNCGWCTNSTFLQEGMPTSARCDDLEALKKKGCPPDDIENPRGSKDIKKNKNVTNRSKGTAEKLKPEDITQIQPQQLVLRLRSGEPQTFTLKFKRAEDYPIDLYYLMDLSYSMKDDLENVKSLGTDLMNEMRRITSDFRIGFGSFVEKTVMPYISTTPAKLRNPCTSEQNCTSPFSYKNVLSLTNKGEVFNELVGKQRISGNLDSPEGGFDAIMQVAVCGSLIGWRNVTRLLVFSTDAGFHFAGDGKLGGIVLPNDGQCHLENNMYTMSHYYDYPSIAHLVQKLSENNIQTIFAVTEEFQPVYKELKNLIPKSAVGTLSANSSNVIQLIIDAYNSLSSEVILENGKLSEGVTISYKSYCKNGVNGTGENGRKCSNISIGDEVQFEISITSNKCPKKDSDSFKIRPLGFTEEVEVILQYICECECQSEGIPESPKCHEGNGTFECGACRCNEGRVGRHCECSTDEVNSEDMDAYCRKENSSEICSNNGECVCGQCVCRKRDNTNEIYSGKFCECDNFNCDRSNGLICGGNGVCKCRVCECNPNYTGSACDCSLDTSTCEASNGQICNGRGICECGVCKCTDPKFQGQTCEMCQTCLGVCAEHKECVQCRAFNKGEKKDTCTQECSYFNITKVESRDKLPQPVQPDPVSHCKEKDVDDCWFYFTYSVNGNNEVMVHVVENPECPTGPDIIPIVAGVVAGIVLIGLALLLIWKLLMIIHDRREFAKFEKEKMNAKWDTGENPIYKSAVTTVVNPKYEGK

| Molecule | IC50 [µM] |
| --- | --- |
| Cc1ccc(CN2C(=O)N(CC(=O)N[C@@H](CC(=O)O)C(=O)N[C@H](C(=O)O)c3ccccc3)C(=O)C2(C)c2ccc(C(=N)N)cc2)cc1 (mixture of isomers) [Example 12, ((R,S)-4-(4-(Amino-imino-methyl)phenyl)-3-(4-methylbenzyl)-4-methyl-2,5-dioxoimidazolidin-1-yl)acetyl-L-aspartyl-L-phenylglycine] | 2.7 |
| ((S)-4-(3-Guanidinopropyl)-3-benzyl-2,5-dioxoimidazolidin-1-yl)acetyl-D-glutamyl-L-phenylglycine-L-tyrosine hydrochloride [Example 40] | 27 |
| CC1(c2ccc(C(=N)N)cc2)C(=O)N(CC(=O)N[C@@H](CC(=O)O)C(=O)N[C@H](C(=O)O)c2ccccc2)C(=O)N1Cc1cc(C(F)(F)F)cc(C(F)(F)F)c1 (mixture of isomers) [Example 16, ((R,S)-4-(4-(Amino-imino-methyl)phenyl)-3-(3,5-bis(trifluoromethyl)benzyl)4-methyl-2,5-dioxoimidazolidin-1-yl)acetyl-L-aspartyl-L-phenylglycine] | 30 |
| CC1(c2ccc(C(=N)N)cc2)C(=O)N(CC(=O)N[C@@H](CC(=O)O)C(=O)N[C@H](C(=O)O)c2ccccc2)C(=O)N1Cc1ccccc1 (stereo partly drawn) [Example 4, ((R,S)-4-(4-(Amino-imino-methyl)phenyl)-3-benzyl-4-methyl-2,5-dioxoimidazolidin-1-yl)acetyl-L-aspartyl-L-phenylglycine] | 1.1 |
| ((S)-4-(3-Guarndinopropyl)-3-benzyl-2,5-dioxoimidazolidin-1-yl)acetyl-D-aspartyl-L-phenylglycine-L-tyrosine hydrochloride [Example 39] | 8 |
| CC1(c2ccc(C(=N)N)cc2)NC(=O)N(CC(=O)N[C@@H](CC(=O)O)C(=O)N[C@H](C(=O)O)c2ccccc2)C1=O (stereo partly drawn) [Example 1, ((R,S)-4-(4-(Amino-imino-methyl)phenyl)-4-methyl-2,5-dioxoimidazolidin-1-yl)acetyl-L-aspartyl-L-phenylglycine] | 140 |

Further lines, results first:

| IC50 [µM] | Molecule |
| --- | --- |
| 0.2 | CN(C(=O)CN1C(=O)N(Cc2ccccc2)C(C)(c2ccc(C(=N)N)cc2)C1=O)[C@@H](CC(=O)O)C(=O)N[C@H](C(=O)O)c1ccccc1 (mixture of isomers) [Example 19, ((R,S)-4-(4-(Amino-imino-methyl)phenyl)-3-benzyl-4-methyl-2,5-dioxo-imidazolidin-1-yl)acetyl-L-N-methyl-aspartyl-L-phenylglycine] |
| 0.09 | CN(C(=O)CN1C(=O)N(Cc2ccc(-c3ccccc3)cc2)C(C)(c2ccc(C(=N)N)cc2)C1=O)[C@@H](CC(=O)O)C(=O)N[C@H](C(=O)O)c1ccccc1 (stereo partly drawn) [Example 18, ((R,S)-4-(4-(Amino-imino-methyl)phenyl)-3-((4-biphenylyl)methyl)-4-methyl-2,5-dioxoimidazolidin-1-yl)acetyl-L-N-methyl-aspartyl-L-phenylglycine] |
| 0.28 | C[C@]1(c2ccc(C(=N)N)cc2)C(=O)N(CC(=O)N[C@@H](CC(=O)O)C(=O)N[C@H](C(=O)O)c2ccccc2)C(=O)N1Cc1ccc2ccccc2c1 [Example 41, ((S)-4-(4-(Amino-imino-methyl)phenyl)-3-((2-naphthyl)methyl)-4-methyl-2,5-dioxoimidazolidin-1-yl)acetyl-L-aspartyl-L-phenylglycine] |
| 17.5 | COc1ccc(C(CC(=O)O)NC(=O)CN2C(=O)N(Cc3ccccc3)C(C)(c3ccc(C(=N)N)cc3)C2=O)cc1OC [Example 57, (R,S)-3-(((R,S)-4-(4-(Amino-imino-methyl)phenyl)-3-benzyl-methyl-2,5-dioxoimidazolidin-1-yl)acetylamino)-3-(3,4-dimethoxyphenyl)propionic acid] |
| 27.5 | COc1cc(OC)cc(C(CC(=O)O)NC(=O)CN2C(=O)N(Cc3ccccc3)C(C)(c3ccc(C(=N)N)cc3)C2=O)c1 [Example 59, (R,S)-3-(((R,S)-4-(4-(Amino-imino-methyl)phenyl)-3-benzyl-4-methyl-2,5-dioxoimidazolidin-1-yl)acetylamino)-3-(3,5-dimethoxyphenyl)propionic acid] |
